# Legend:
# Format in all cases: in vivo
# [1] = test system: Lolium multiflorum Lam.; experiment: Test Example 5: herbicidal effect by foliage application, plastic box (symbol K); settings: 320 g/ha, 3 weeks after application
# In short: (§1)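 Post-emergence spray; diluvial soil (sterilized), ~1.5 cm seed cover; greenhouse 25–30° C; 14-day-old plants; water-diluted emulsion at predetermined dose; visual score at 3 wk post-treatment.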
# [2] = test system: Cyperus difformis; experiment: Test Example 3: herbicidal effect by foliage application, Wagner pot (symbol E); settings: application herbicide amount 320 g/ha
# In short: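 Foliar spray of water-diluted emulsion formulation at a predetermined herbicide amount onto 14-day-old plants in flooded alluvial soil (water depth 0.1–0.5 cm), greenhouse 25–30 °C; rice sown alongside. Scored 3 wk post-application on set criteria.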
# [3] = test system: corn; experiment: Test Example 4: effect on crop by soil treatment (symbol c); settings: application herbicide amount 320 g/ha
# In short: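 Sterilized diluvial soil, spot sowing, ~1.5 cm soil cover; greenhouse 25–30° C.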
# [4] = test system: soybean; experiment: Test Example 4: effect on crop by soil treatment (symbol d); settings: application herbicide amount 320 g/ha
# In short: (§2)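 Diluvial soil (sterilized) in boxes; seeds placed spot-wise alongside weed species; ~1.5 cm covering soil. Greenhouse, 25–30° C.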
# [5] = test system: transplanted rice plant; experiment: Test Example 1: effect on crop, application before weed generation in submerged conditions (symbol a); settings: application herbicide amount 320 g/ha
# In short: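 Rice at 2.5 leaf stage transplanted into submerged soil (4 cm depth) sown with three weed species; herbicide applied before weed emergence.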
# [6] = test system: Echinochloa oryzacola Vasing.; experiment: Test Example 1: herbicidal activity, application before weed generation in submerged conditions (symbol A); settings: application herbicide amount 320 g/ha
# In short: (§3)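 Pre-emergence, paddy conditions: emulsifiable formulation diluted in water, dosed onto floodwater (4 cm depth) on sowing day. Alluvial soil; weeds sown mixed; rice transplanted at 2.5-leaf stage. Greenhouse 25–30 °C, 3 wk. Score 0–5 (5 = ≥90% kill, 0 = ≤5%).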
# [7] = test system: Alopecurus myosuroides; experiment: Test Example 5: herbicidal effect by foliage application, plastic box (symbol J); settings: 320 g/ha, 3 weeks after application
# In short: as §1
# [8] = test system: Stellaria media; experiment: Test Example 4: herbicidal effect by soil treatment (symbol P); settings: application herbicide amount 320 g/ha
# In short: (§4)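 Seeds were sown in sterilized diluvial soil, covered with about 1.5 cm of soil, and the soil surface was sprayed with a water-diluted emulsion of the compound at a predetermined rate. Plants grew in a greenhouse at 25° C. to 30° C.; effects were scored visually 3 weeks after application.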
# [9] = test system: Setaria viridis; experiment: Test Example 5: herbicidal effect by foliage application, plastic box (symbol G); settings: 320 g/ha, 3 weeks after application
# In short: as §1
# [10] = test system: Alopecurus myosuroides; experiment: Test Example 4: herbicidal effect by soil treatment (symbol J); settings: application herbicide amount 320 g/ha
# In short: as §4
# [11] = test system: wheat; experiment: Test Example 4: effect on crop by soil treatment (symbol e); settings: application herbicide amount 320 g/ha
# In short: as §2
# [12] = test system: Galium spurium; experiment: Test Example 4: herbicidal effect by soil treatment (symbol Q); settings: application herbicide amount 320 g/ha
# In short: as §4
# [13] = test system: rice; experiment: Test Example 4: effect on crop by soil treatment (symbol b); settings: application herbicide amount 320 g/ha
# In short: as §2
# [14] = test system: Scirpus juncoides; experiment: Test Example 1: herbicidal activity, application before weed generation in submerged conditions (symbol B); settings: application herbicide amount 320 g/ha
# In short: as §3
# [15] = test system: Galium spurium; experiment: Test Example 5: herbicidal effect by foliage application, plastic box (symbol Q); settings: 320 g/ha, 3 weeks after application
# In short: as §1
SMILES,"K: Lolium multiflorum Lam., herbicidal effect grade [1]","herbicidal effect on E, grade 0-5 [2]","c: corn, effect on crop grade [3]","d: soybean, effect on crop grade [4]","Effect grade on crop, a: transplanted rice plant [5]","Herbicidal effect grade, A: Echinochloa oryzacola Vasing. [6]","J: Alopecurus myosuroides, herbicidal effect grade [7]","P: Stellaria media, herbicidal effect grade [8]","G: Setaria viridis, herbicidal effect grade [9]","J: Alopecurus myosuroides, herbicidal effect grade [10]","e: wheat, effect on crop grade [11]","Q: Galium spurium, herbicidal effect grade [12]","b: directly sowed rice plant, effect on crop grade [13]","Herbicidal effect grade, B: Scirpus juncoides [14]","Q: Galium spurium, herbicidal effect grade [15]"
Cc1cc(C)c(C2=C(O)CC(CC(=O)C3CCCC3)C2=O)c(C)c1 (stereo not drawn) [2-028],5 (Herbicidal ratio of 90% or more (almost completely withered)),4 (Herbicidal ratio of 70% or higher and lower than 90%),2 (Herbicidal ratio of 20% or higher and lower than 40%),0 (Herbicidal ratio of 5% or lower (almost no effect)),3 (Herbicidal ratio of 40% or higher and lower than 70%),3 (Herbicidal ratio of 40% or higher and lower than 70%),4 (Herbicidal ratio of 70% or higher and lower than 90%),0 (Herbicidal ratio of 5% or lower (almost no effect)),5 (Herbicidal ratio of 90% or more (almost completely withered)),3 (Herbicidal ratio of 40% or higher and lower than 70%),0 (Herbicidal ratio of 5% or lower (almost no effect)),0 (Herbicidal ratio of 5% or lower (almost no effect)),5 (Herbicidal ratio of 90% or more (almost completely withered)),0 (Herbicidal ratio of 5% or lower (almost no effect)),0 (Herbicidal ratio of 5% or lower (almost no effect))
Cc1cc(C)c(C2=C(O)CC(CC(=O)C3CCCCC3)C2=O)c(C)c1 (stereo not drawn) [2-030],5 (Herbicidal ratio of 90% or more (almost completely withered)),0 (Herbicidal ratio of 5% or lower (almost no effect)),1 (Herbicidal ratio of 5% or higher and lower than 20%),0 (Herbicidal ratio of 5% or lower (almost no effect)),3 (Herbicidal ratio of 40% or higher and lower than 70%),4 (Herbicidal ratio of 70% or higher and lower than 90%),3 (Herbicidal ratio of 40% or higher and lower than 70%),0 (Herbicidal ratio of 5% or lower (almost no effect)),5 (Herbicidal ratio of 90% or more (almost completely withered)),3 (Herbicidal ratio of 40% or higher and lower than 70%),0 (Herbicidal ratio of 5% or lower (almost no effect)),0 (Herbicidal ratio of 5% or lower (almost no effect)),5 (Herbicidal ratio of 90% or more (almost completely withered)),0 (Herbicidal ratio of 5% or lower (almost no effect)),0 (Herbicidal ratio of 5% or lower (almost no effect))
Cc1cc(C)c(C2=C(O)CC(CC(=O)c3ccc(F)cc3)C2=O)c(C)c1 (stereo not drawn) [2-032],5 (Herbicidal ratio of 90% or more (almost completely withered)),4 (Herbicidal ratio of 70% or higher and lower than 90%),1 (Herbicidal ratio of 5% or higher and lower than 20%),0 (Herbicidal ratio of 5% or lower (almost no effect)),5 (Herbicidal ratio of 90% or more (almost completely withered)),4 (Herbicidal ratio of 70% or higher and lower than 90%),4 (Herbicidal ratio of 70% or higher and lower than 90%),0 (Herbicidal ratio of 5% or lower (almost no effect)),5 (Herbicidal ratio of 90% or more (almost completely withered)),5 (Herbicidal ratio of 90% or more (almost completely withered)),0 (Herbicidal ratio of 5% or lower (almost no effect)),0 (Herbicidal ratio of 5% or lower (almost no effect)),5 (Herbicidal ratio of 90% or more (almost completely withered)),4 (Herbicidal ratio of 70% or higher and lower than 90%),0 (Herbicidal ratio of 5% or lower (almost no effect))
CCc1cc(Br)cc(C)c1C1=C(O)CC(CC(C)=NOC)C1=O (stereo not drawn) [6-001],5 (Herbicidal ratio of 90% or more (almost completely withered)),0 (Herbicidal ratio of 5% or lower (almost no effect)),5 (Herbicidal ratio of 90% or more (almost completely withered)),0 (Herbicidal ratio of 5% or lower (almost no effect)),5 (Herbicidal ratio of 90% or more (almost completely withered)),5 (Herbicidal ratio of 90% or more (almost completely withered)),5 (Herbicidal ratio of 90% or more (almost completely withered)),0 (Herbicidal ratio of 5% or lower (almost no effect)),5 (Herbicidal ratio of 90% or more (almost completely withered)),5 (Herbicidal ratio of 90% or more (almost completely withered)),5 (Herbicidal ratio of 90% or more (almost completely withered)),0 (Herbicidal ratio of 5% or lower (almost no effect)),5 (Herbicidal ratio of 90% or more (almost completely withered)),0 (Herbicidal ratio of 5% or lower (almost no effect)),0 (Herbicidal ratio of 5% or lower (almost no effect))
CCc1cc(C)cc(C)c1C1=C(O)CC(CC(C)=NOC)C1=O (stereo not drawn) [6-007],5 (Herbicidal ratio of 90% or more (almost completely withered)),5 (Herbicidal ratio of 90% or more (almost completely withered)),5 (Herbicidal ratio of 90% or more (almost completely withered)),0 (Herbicidal ratio of 5% or lower (almost no effect)),5 (Herbicidal ratio of 90% or more (almost completely withered)),5 (Herbicidal ratio of 90% or more (almost completely withered)),5 (Herbicidal ratio of 90% or more (almost completely withered)),0 (Herbicidal ratio of 5% or lower (almost no effect)),5 (Herbicidal ratio of 90% or more (almost completely withered)),5 (Herbicidal ratio of 90% or more (almost completely withered)),5 (Herbicidal ratio of 90% or more (almost completely withered)),0 (Herbicidal ratio of 5% or lower (almost no effect)),5 (Herbicidal ratio of 90% or more (almost completely withered)),5 (Herbicidal ratio of 90% or more (almost completely withered)),0 (Herbicidal ratio of 5% or lower (almost no effect))
